In ChEMBL document CHEMBL4665740, “Discovery of noscapine derivatives as potential β-tubulin inhibitors” (Bioorg Med Chem Lett, 2020):
Calls of active or inactive are those of the source. The calls are words filed in the database; no cut-off is given here.

Legend:
Tubulin beta = experiment: Binding affinity to CM5 chip immobilized beta tubulin (unknown origin) assessed as thermodynamic constants by SPR assay; assay type: protein assay, Homo sapiens
MCF7 [1] = experiment: Cytotoxicity against human MCF7 cells assessed as mortality at 20 uM after 48 hrs by MTT assay; assay type: functional, cell-based
MCF7 [2] = experiment: Cytotoxicity against human MCF7 cells assessed as mortality at 20 uM after 48 hrs by MTT assay relative to control; assay type: functional

Row | Structure (SMILES) | Kd (Tubulin beta) | Activity (MCF7 [1]) | Activity (MCF7 [2])
1 | COc1ccc2c(c1OC)C(=O)O[C@@H]2[C@H]1c2c(cc3c(c2OC)OCO3)CCN1Cc1cn(-c2ccc(F)cc2)nn1 | 0.0215 µM | Active | –
2 | COc1ccc2c(c1OC)C(=O)O[C@@H]2[C@H]1c2c(cc3c(c2OC)OCO3)CCN1C [NOSCAPINE] | 0.579 µM | – | 20%
3 | CCC(O)Cn1cc(CN2CCc3c(Br)c4c(c(OC)c3[C@@H]2[C@H]2OC(=O)c3c2ccc(OC)c3OC)OCO4)nn1 (some centres not stated) | 0.132 µM | Active | –
4 | COc1ccc2c(c1OC)C(=O)O[C@@H]2[C@H]1c2c(cc3c(c2OC)OCO3)CCN1Cc1cn(Cc2ccccc2)nn1 | 0.133 µM | – | 60%
5 | CCC(O)Cn1cc(CN2CCc3cc4c(c(OC)c3[C@@H]2[C@H]2OC(=O)c3c2ccc(OC)c3OC)OCO4)nn1 (some centres not stated) | – | – | 60%
6 | COc1ccc2c(c1OC)C(=O)O[C@@H]2[C@H]1c2c(c(Br)c3c(c2OC)OCO3)CCN1Cc1cn(-c2ccc(Br)cc2)nn1 | 0.0369 µM | – | 60%
7 | COc1ccc2c(c1OC)C(=O)O[C@@H]2[C@H]1c2c(c(Br)c3c(c2OC)OCO3)CCN1Cc1cn(-c2ccc(Cl)c(Cl)c2)nn1 | 0.3743 µM | Active | –
8 | COc1ccc(-n2cc(CN3CCc4c(Br)c5c(c(OC)c4[C@@H]3[C@H]3OC(=O)c4c3ccc(OC)c4OC)OCO5)nn2)cc1OC | – | Active | –
9 | COc1ccc2c(c1OC)C(=O)O[C@@H]2[C@H]1c2c(cc3c(c2OC)OCO3)CCN1Cc1cn(CC(C)(C)O)nn1 | – | Active | –
10 | COc1ccc2c(c1OC)C(=O)O[C@@H]2[C@H]1c2c(c(Br)c3c(c2OC)OCO3)CCN1Cc1cn(CC(C)(C)O)nn1 | – | Active | –
11 | COc1ccc2c(c1OC)C(=O)O[C@@H]2[C@H]1c2c(c(Br)c3c(c2OC)OCO3)CCN1Cc1cn(-c2ccc(F)cc2)nn1 | – | Active | –
